Measured values published in article PMC5453931, “Cathelicidin-trypsin inhibitor loop conjugate represents a promising antibiotic candidate with protease stability” (Scientific Reports, 2017).
Values after ≈ are worked out from the molar mass of the structure shown. Where a SMILES comes first, the peptide text is derived from it.

What was measured:
[1] = system: established C. albicans biofilm; assay: Biofilm disruption assay, established biofilm (XTT, PI/SYBR Green I); type: cell-based; details: 5 μg/mL, biofilm preformed 72 h, XTT metabolic activity; Fig. 2B
Experimental: (§1) TIH3F that has the best antifungal activity among the four peptides was chosen to examine the effect on the C. albicans biofilm formation and the established biofilm using previously described method with minor modifications. In the biofilm inhibition assay, after the incubation at 35 °C, C. Albicans was diluted to 1 × 10^6 CFU/mL in RPMI-1640 medium. Then 2 mL culture was added to each well of 6-well plates with coverslips at the bottom, and incubated at 35 °C in a humid chamber for 3 h. Non-adherent cells were then washed away by PBS, and series concentrations of TIH3F (0, 1, 2, 4 μg/mL) were added into the plate, with amphotericin B as control. The formation of the biofilm was determined by the XTT Cell Proliferation and Cytotoxicity Kit (KeyGEN BioTECH, Nanjing, China) after 36-h incubation. In the biofilm disruption assay, the biofilm was preformed as described above but with a longer incubation time up to 72 h. Then TIH3F and amphotericin B of series concentrations (0, 2.5, 5, 10, 25, 50 μg/mL) was added after non-adherent cells were washed out. The measurement of remaining biofilm was then determined. In order to further confirm the antifungal effect of TIH3F against C. albicans encased in biofilms, the established biofilm was treated with TIH3F (0, 5, 50 μg/mL), washed three times with PBS, and finally stained with 1 mL 1000-fold diluted PI/SYBR Green I at 30 °C in the dark for 20 min. After washing with PBS, the plate was immediately photographed with fluorescence microscope.

[2] = system: C. albicans biofilm formation; assay: Biofilm inhibition assay (XTT); type: cell-based; details: Candida albicans, 4 μg/mL, 36 h, 35 °C, Fig. 2A
Experimental: as §1, with “In order to further confirm the antifungal effect of TIH3F against C. albicans encased in biofilms, the established biofilm was treated with TIH3F (0, 5, 50 μg/mL), washed three times with PBS, and finally stained with 1 mL 1000-fold diluted PI/SYBR Green I at 30 °C in the dark for 20 min.” left out

[3] = system: trypsin; assay: Protease stability, RP-HPLC analysis of degradation; type: in vitro ADME; details: trypsin, 300:1, 0.1 M NH4HCO3 pH 8.2, 37 °C, 6 h; RP-HPLC; Fig. 4
Experimental: To further examine the stability of TIH3F incubated with enzymes (trypsin and protease K) over time, the LC analysis of peptide degradation over a series of time spans (0, 6, 12, 24 h) was performed. TIH3F and protease solution were prepared in 0.1 M NH4HCO3 buffer (pH 8.2) to final molar ratio of 300:1, and incubated at 37 °C for 6, 12, and 24 h, respectively. Then 150 μL aliquots were taken at given time intervals, diluted with 150 μL of water/acetonitrile (60/40 v/v) containing 2% TFA, and analyzed by RP-HPLC (Thermo Scientific Syncronis C18 column, 250 mm × 4.6 mm, 5 μm), eluted with acetonitrile/water (containing 0.1% TFA) mixture of linear gradient concentration.

[4] = system: P. aeruginosa; type: cell-based; details: 18 h
Experimental: (§2) A two-fold broth microdilution method described in our previous paper was used to determine the antimicrobial activities of parental and hybrid peptides. More than 30 strains including Gram-negative bacteria, Gram-positive bacteria and fungi were used in the current assay, in which the standard strains were stored in our lab and the clinical strains were collected from local hospitals. Briefly, bacteria were incubated in Mueller-Hinton broth (MH broth) at 37 °C to exponential phase and diluted to 10^6 CFU/mL. A serial dilution of peptide sample were prepared in 96-well microtiter plates (50 μL) and mixed with equal volume of microbial inoculums (50 μL). The plate was slowly shaken in the microbial incubator, and measured at A595 after incubation at 37 °C for 18 h. The minimal concentrations at which no microbial growth occurred were recorded as MIC (minimal inhibitory concentration) values. The traditional antibiotic ampicillin was used as positive control. The results are shown in an average of the MICs obtained from three independent experiments.

[5] = system: S. dysenteria; type: cell-based; details: two-fold broth microdilution, MH broth, 37 °C, 18 h, A595; mean of three independent experiments in duplicate
Experimental: as §2

[6] = system: C. albican; type: cell-based; details: 18 h
Experimental: as §2

[7] = system: E. coli; type: cell-based; details: 18 h
Experimental: as §2

[8] = system: B. subtilis; type: cell-based; details: 18 h
Experimental: as §2

[9] = system: E. coli 08040726; type: cell-based; details: 08040726, 18 h
Experimental: as §2

[10] = system: S. aureus; type: cell-based; details: 18 h
Experimental: as §2

[11] = system: P. mirabilis; type: cell-based; details: 18 h
Experimental: as §2

[12] = system: K. Pneumoniae 08040202; assay: microbe, parasite or virus in culture; type: cell-based; details: 08040202, 18 h
Summary of the method: (§3)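 Two-fold broth microdilution in Mueller-Hinton broth: exponential-phase microbes were diluted to 10^6 CFU/mL, then mixed 1:1 with serially diluted peptide. Plates were shaken at 37 °C for 18 h and read at A595. MIC is the lowest concentration with no growth, averaged over three independent experiments.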

[13] = system: Shigella dysenteriae 0804203; assay: microbe, parasite or virus in culture; type: cell-based; details: Gram-negative; two-fold broth microdilution, MH broth, 37 °C, 18 h; mean of three independent experiments in duplicates
Summary of the method: as §3

[14] = system: K. Pneumoniae 08031012; assay: microbe, parasite or virus in culture; type: cell-based; details: 08031012, 18 h
Summary of the method: as §3

[15] = system: Candida albicans 08030102; assay: microbe, parasite or virus in culture; type: cell-based; details: 08030102, 18 h
Summary of the method: as §3

[16] = system: Proteus mirabilis 1376; assay: microbe, parasite or virus in culture; type: cell-based; details: 1376, 18 h
Summary of the method: as §3

[17] = system: P. Aeruginosa 08021015; assay: microbe, parasite or virus in culture; type: cell-based; details: 08021015, 18 h
Summary of the method: as §3

[18] = system: Nocardia asteroides 08052412; assay: microbe, parasite or virus in culture; type: cell-based; details: 18 h
Summary of the method: as §3

[19] = system: S. Aureus 08032615; assay: microbe, parasite or virus in culture; type: cell-based; details: 08032615, 18 h
Summary of the method: as §3

[20] = system: Escherichia coli ATCC25922; assay: microbe, parasite or virus in culture; type: cell-based; details: ATCC25922, 18 h
Summary of the method: as §3

[21] = system: S. Maltophilia 090223; assay: microbe, parasite or virus in culture; type: cell-based; details: 090223, 18 h
Summary of the method: as §3

[22] = system: S. Aureus 08032810; assay: microbe, parasite or virus in culture; type: cell-based; details: 08032810, 18 h
Summary of the method: as §3

[23] = system: Vibrio harveyi; assay: microbe, parasite or virus in culture; type: cell-based; details: 18 h
Summary of the method: as §3

[24] = system: Enterococcus faecium 08052315; assay: microbe, parasite or virus in culture; type: cell-based; details: 08052315, 18 h
Summary of the method: as §3

[25] = system: Bacillus subtilis 08042313; assay: microbe, parasite or virus in culture; type: cell-based; details: 08042313, 18 h
Summary of the method: as §3

[26] = system: E. Coli 08032823; assay: microbe, parasite or virus in culture; type: cell-based; details: 08032823, 18 h
Summary of the method: as §3

[27] = system: S. Aureus 08032706; assay: microbe, parasite or virus in culture; type: cell-based; details: 08032706, 18 h
Summary of the method: as §3

[28] = system: Aeromonas veronii; assay: microbe, parasite or virus in culture; type: cell-based; details: 18 h
Summary of the method: as §3

[29] = system: trypsin or proteinase K; details: peptide:protease 300/1 mol/mol, 30 min, 37 °C, then 1 × MIC 2 h with E. coli, S. aureus, C. albicans; colony counting; Fig. 3E
[30] = 20% fresh human serum, 37 °C, colonies surviving 1 × MIC, Fig. 3B

## C[C@@H]1[C@H](O)[C@@H](C)/C=C/C=C/C=C/C=C/C=C/C=C/C=C/[C@H](O[C@@H]2O[C@H](C)[C@@H](O)[C@H](N)[C@@H]2O)C[C@@H]2O[C@](O)(C[C@@H](O)C[C@@H](O)[C@H](O)CC[C@@H](O)C[C@@H](O)CC(=O)O[C@H]1C)C[C@H](O)[C@H]2C(=O)O [amphotericin B, reference compound]
[1]
  damage of established C. albicans biofilm: remained intact
[2]
  inhibition at 4 µg/mL: 25%

## CC(C)C[C@H](NC(=O)[C@H](CCCNC(=N)N)NC(=O)[C@H](CCCCN)NC(=O)[C@H](Cc1ccccc1)NC(=O)[C@H](Cc1ccccc1)NC(=O)[C@@H](N)CCCCN)C(=O)N[C@@H](CC(C)C)C(=O)N[C@@H](CCCCN)C(=O)N[C@@H](CO)C(=O)N[C@H](C(=O)N[C@@H](CCCNC(=N)N)C(=O)N[C@@H](CCCNC(=N)N)C(=O)N[C@@H](C)C(=O)N[C@H](C(=O)N[C@@H](CCCCN)C(=O)N[C@@H](CCCCN)C(=O)N[C@@H](Cc1ccccc1)C(N)=O)C(C)C)C(C)C [Hc3] (H-KFFKRLLKSVRRAVKKF-NH2)
[3]
  degradation by trypsin: the majority of which was rapidly digested
[4]
  MIC P. aeruginosa: 9.38 µg/mL (≈ 4.36 µM)
[5]
  MIC S. dysenteria: 2.34 µg/mL (≈ 1.09 µM)
[6]
  MIC C. albican: 9.38 µg/mL (≈ 4.36 µM)
[7]
  MIC E. coli: 18.75 µg/mL (≈ 8.72 µM)
[8]
  MIC B. subtilis: 9.38 µg/mL (≈ 4.36 µM)
[9]
  MIC E. coli 08040726: 37.5 µg/mL (≈ 17.4 µM)
[10]
  MIC S. aureus: 9.38 µg/mL (≈ 4.36 µM)
[11]
  MIC P. mirabilis: 4.68 µg/mL (≈ 2.18 µM)
[12]
  MIC K. Pneumoniae 08040202: 75 µg/mL (≈ 34.9 µM)
[13]
  MIC Shigella dysenteriae 0804203: 2.34 µg/mL (≈ 1.09 µM)
[14]
  MIC K. Pneumoniae 08031012: 75 µg/mL (≈ 34.9 µM)
[15]
  MIC Candida albicans 08030102: 9.38 µg/mL (≈ 4.36 µM)
[16]
  MIC Proteus mirabilis 1376: 4.68 µg/mL (≈ 2.18 µM)
[17]
  MIC P. Aeruginosa 08021015: 9.38 µg/mL (≈ 4.36 µM)
[18]
  MIC Nocardia asteroides 08052412: 4.69 µg/mL (≈ 2.18 µM)
[19]
  MIC S. Aureus 08032615: 9.38 µg/mL (≈ 4.36 µM)
[20]
  MIC Escherichia coli ATCC25922: 18.75 µg/mL (≈ 8.72 µM)
[21]
  MIC S. Maltophilia 090223: 9.38 µg/mL (≈ 4.36 µM)
[22]
  MIC S. Aureus 08032810: 75 µg/mL (≈ 34.9 µM)
[23]
  MIC Vibrio harveyi: 18.75 µg/mL (≈ 8.72 µM)
[24]
  MIC Enterococcus faecium 08052315: 9.38 µg/mL (≈ 4.36 µM)
[25]
  MIC Bacillus subtilis 08042313: 9.38 µg/mL (≈ 4.36 µM)
[26]
  MIC E. Coli 08032823: 9.38 µg/mL (≈ 4.36 µM)
[27]
  MIC S. Aureus 08032706: 75 µg/mL (≈ 34.9 µM)
[28]
  MIC Aeromonas veronii: 9.38 µg/mL (≈ 4.36 µM)
[29]
  antimicrobial activity after treatment with trypsin or proteinase K: almost lost its bactericidal ability
[30]; 3 h
  bactericidal ability after incubation with human serum: dropped more than half
[30]; 6 h
  kill (%) after incubation with human serum: almost diminished
[30]; 36 h
  kill (%) / antimicrobial activity kept after incubation with human serum: lost its bacterial inhibitory activity
